Key:
[1] = Hepatocyte stability, human; type: in vitro ADME; conditions: cryopreserved hepatocytes, over 2 h
Experimental: Human cryopreserved hepatocytes were supplied by BioIVT (lot QZW, 10 pooled donors, Westbury, NY, USA). Mouse cryopreserved hepatocytes were supplied by BioIVT (lot ZPG, pooled male CD-1). Vials of cryopreserved hepatocytes were removed from storage and thawed in a 37 °C water bath with gentle shaking, and then the contents were poured into a 50 mL thawing medium conical tube. Vials were centrifuged at 100× g for 10 min at room temperature. The thawing medium was aspirated, and hepatocytes were resuspended with a serum-free incubation medium to yield ~1.5 × 10^6 cells/mL. Cell viability and density were counted using AO/PI fluorescence staining, and then cells were diluted with a serum-free incubation medium to a working cell density of 0.5 × 10^6 viable cells/mL. Aliquots of 198 μL of hepatocytes were dispensed into each well of a 96-well noncoated plate. The plate was placed in an incubator for approximately 10 min. […] Peak areas were determined from extracted ion chromatograms, and the slope value, k, was determined by linear regression of the natural logarithm of the remaining percentage of the parent drug vs. incubation time curve. The intrinsic clearance (CLint in μL/min/10^6 cells) was calculated using the relationship CLint = kV/N, where V is the incubation volume (0.2 mL) and N is the number of hepatocytes per well (0.1 × 10^6 cells). […]

NEK5 = biological target: T1, NEK5 (Homo sapiens, UniProt Q6P3R8); assay: NanoBRET K192; type: cell-based; conditions: HEK293
T1 construct: purchased Promega (NanoBRET Target Engagement K192 Kinase Selectivity System)
Experimental: The K192 selectivity assay was run according to the Draft Promega technical manual, NanoBRET^TM Target Engagement K192 Kinase Selectivity System. Reagents were supplied by Promega (Promega NP 4101). For the assay, DNA from the prepared kinase vector panel plates A and B were mixed with Fugene in 96-well plates (Corning 3917) and incubated at room temperature for 30 min. The NanoLuc® Low control vector pNL1.1.CMV [Nluc/CMV] Vector (Cat.# N1091) and the transfection control vector NanoLuc®-HIPK2 Fusion Vector (Cat.# NV3221) were used as controls.
HEK293 cells were grown to 75–95% confluency in DMEM (Gibco 11995-065) supplemented with FBS (Avantor 97068-085) at 37 °C in […]. On the first day of the assay, cells were harvested and resuspended in Opti-MEM (Gibco 11058-021) supplemented with 1% FBS (Avantor 97068-085) at 2.5 × 10^5 cells per mL. A volume of 60 μL of cell suspension was mixed with 10 μL of prepared DNA (10X concentration) and 30 μL of Fugene (30 μL/mL in Opti-MEM) as outlined by Promega and incubated overnight at 37 °C in a 5% CO2 incubator.
On day two of the assay, 5 μL of 20X K10 tracer was prepared and added at concentrations recommended by Promega. Then, 10 μL of test compounds at 100 μM in Opti-MEM (diluted from a 10 mM solution in DMSO) was added to the test wells while an equivalent volume of Opti-MEM was added to the high-control wells. Plates were kept at 37 °C in a 5% CO2 incubator for two hours. After two hours, plates were allowed to equilibrate to room temperature for 15 min. A solution of 3X Complete Substrate plus Inhibitor Solution was freshly prepared, consisting of a 1:166 dilution of NanoBRET™ Nano-Glo® Substrate plus a 1:500 dilution of Extracellular NanoLuc® Inhibitor in Opti-MEM® medium without serum or phenol red. A 50 μL volume of the 3X Complete Substrate plus Inhibitor Solution was added to each assay well, including control wells. After 2–3 min, the plate was shaken at 300 RPM for 10 s, and the donor emission wavelength (450 nm) and acceptor emission wavelength (610 nm) were measured using the Glomax® Discover System.
As a quality check, the donor signal-to-background ratio was calculated for each individual kinase by dividing the mean donor signal for each kinase by the mean donor signal for the signal-to-background control wells. Fractional occupancy of the test drug for each kinase was determined using the following formula:Occupancy (%) = [1 − (Sample − Bottom)/(Top − Bottom)] × 100 where

CSNK2 = assay: In vivo CSNK2 inhibition (substrate phosphorylation in lungs); set-up: species or system Balb/c mice; conditions: 30 mg/kg p.o. b.i.d.
Experimental: Balb/c mice (female, 8-10 weeks old, from Envigo, Inotiv, Indianapolis, IN, USA) were treated with compound 2 at 30 mg/kg p.o. in a vehicle (DMSO/PEG-400/Water (v/v/v), 10:30:60). Mice were dosed every 12 h for a total of 36 h (3 doses). At the determined time points, mice were euthanized using an overdose of isoflurane (Baxter, Deerfield, IL, USA). Blood was collected via cardiac puncture and lung lobes were collected for downstream processing and analysis. Recovered blood was placed in EDTA tubes, spun at 5000× g in a microcentrifuge and the recovered plasma transferred to a clean tube and frozen at -80 °C until analysis. The left lung lobe was added to a 2 mL O-ring skirted tube containing 750 μL of 1 × PBS containing Phos Stop (per the manufacturer's recommendation, Roche) and glass beads. Lungs were homogenized for 60 s at 6000 rpm in a Roche MagNA Lyser. Homogenates were centrifuged for 5 min at 10,000 rpm and 500 μL of the homogenate was transferred to a clean tube and frozen at -80 °C until analysis. […] Samples were quantified using the Piece Rapid Gold BCA Protein Assay kit (ThermoFisher, A53226, Waltham, MA, USA), and 50 μg protein was run on 4-20% Tris-Glycine gels and transferred to PVDF. […] Bands were quantified using Fiji and normalized to GAPDH. […]

[2] = Liver microsomal stability, human; type: in vitro ADME; conditions: pH 7.4, human liver microsomes, five time points over 1 h, read-out: HLM CLint
DAPK2 = biological target: T2, DAPK2 (Homo sapiens, UniProt Q9UIK4); assay: NanoBRET dose-response DAPK2; type: cell-based; conditions: highest concentration tested 30 μM
T2 construct: expressed in transfected cells; host or cells: HEK293
T2 sequence (Q9UIK4 whole entry): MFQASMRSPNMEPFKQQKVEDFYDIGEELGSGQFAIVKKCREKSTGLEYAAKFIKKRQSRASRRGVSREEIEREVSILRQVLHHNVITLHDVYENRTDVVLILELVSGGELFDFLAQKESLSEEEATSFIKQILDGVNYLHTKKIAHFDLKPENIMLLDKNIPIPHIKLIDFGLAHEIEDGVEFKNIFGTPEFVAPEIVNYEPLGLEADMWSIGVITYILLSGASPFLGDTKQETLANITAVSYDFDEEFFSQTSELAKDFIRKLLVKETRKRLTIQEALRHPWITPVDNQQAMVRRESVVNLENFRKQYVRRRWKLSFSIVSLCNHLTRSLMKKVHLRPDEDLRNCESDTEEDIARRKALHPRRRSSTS

T1 sequence (Q6P3R8 whole entry): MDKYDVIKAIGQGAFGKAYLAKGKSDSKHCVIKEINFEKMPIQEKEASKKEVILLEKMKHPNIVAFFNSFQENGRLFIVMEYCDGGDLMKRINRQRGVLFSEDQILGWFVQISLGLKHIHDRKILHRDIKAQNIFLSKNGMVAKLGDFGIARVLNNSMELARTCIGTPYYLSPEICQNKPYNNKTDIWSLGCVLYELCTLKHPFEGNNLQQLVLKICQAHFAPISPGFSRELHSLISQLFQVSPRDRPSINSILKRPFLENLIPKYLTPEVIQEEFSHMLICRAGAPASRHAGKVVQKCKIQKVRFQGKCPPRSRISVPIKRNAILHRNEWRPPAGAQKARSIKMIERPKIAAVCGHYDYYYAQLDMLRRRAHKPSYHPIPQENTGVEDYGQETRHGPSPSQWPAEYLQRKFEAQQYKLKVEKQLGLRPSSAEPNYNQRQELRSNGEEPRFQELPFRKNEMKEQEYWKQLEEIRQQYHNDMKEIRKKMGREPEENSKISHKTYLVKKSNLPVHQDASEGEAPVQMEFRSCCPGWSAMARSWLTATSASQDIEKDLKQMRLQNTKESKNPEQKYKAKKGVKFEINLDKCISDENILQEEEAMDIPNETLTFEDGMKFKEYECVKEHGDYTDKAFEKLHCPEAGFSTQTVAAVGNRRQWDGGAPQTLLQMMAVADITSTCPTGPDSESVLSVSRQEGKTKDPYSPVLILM

With CCC(=O)Nc1cc(Nc2cc(NC3CC3)n3ncc(C#N)c3n2)c(F)cc1N1CCC[C@H](NC)C1 [Compound 2, (S)-N-(5-((3-cyano-7-(cyclopropylamino)pyrazolo[1,5-a]pyrimidin-5-yl)amino)-4-fluoro-2-(3-(methylamino)piperidin-1-yl)phenyl)propionamide] the CLint scaled at 1 μM [1] was 6.9 mL/min/kg, the receptor occupancy at 10 µM (NEK5) was 24.8% and the “EIF2S2 (phospho-Ser2) levels normalized to total EIF2S2 in mouse lungs” value (CSNK2; 3, 6, 36 h, small decrease at 3 h, p = 0.14) was “no statistically significant difference”. The “AKT (phospho-Ser129) levels normalized to total AKT in mouse lungs” value (CSNK2; 3 h time point, p = 0.0028) was “A decrease in the phosphorylation levels of Ser129 of AKT”, the CLint scaled at 5 μM [2] was 12.9 mL/min/kg and the IC50 (DAPK2) was over 30 µM.

Reference: publication PMC11397024, “Strategic Fluorination to Achieve a Potent, Selective, Metabolically Stable, and Orally Bioavailable Inhibitor of CSNK2” (Molecules, 2024)
